Laboratory results: patent US20260272907A1, “Therapeutic Tyrosine Kinase Inhibitors for Multiple Sclerosis” (Principia Biopharma Inc., priority 2022, published 2026)

Experiments:
CYP3A = test: Preclinical drug metabolism studies: CYP3A; assay type: in vitro ADME
Excerpt: See Table 12 for the list of drugs not to be used.

[1] = test system: patients with relapsing multiple sclerosis; test: Long-term safety extension: number of new T1 non-enhancing (hypointense) lesions (MRI); assay type: in vivo, human
Protocol: In the current open-label extension Part B, all patients receive 60 mg/day. MRI outcomes include numbers of new Gd-enhancing and new/enlarging T2 lesions, T2 lesion volume change from baseline, slowly evolving lesions (SEL), and paramagnetic rim lesions (PRL).
The Week 0 value is from the last MRI obtained in the dose-finding study if performed within 6 weeks prior to Day 1 of the long-term safety study For some patients the Week 0 value began after a gap period ranging from 0-21 weeks. For patients where the gap period was 0 weeks, the Week 0 value began immediately after the completion of Week 16 of the dose-finding study. For patients where the gap period was greater than 6 weeks a new MRI was obtained prior to Day 1 of the long-term safety study.
If from Week 16 of the dose-finding study (Cohort 2), it is also included in Week 12. If from Week 16 of the dose-finding study (Cohort 1), it is after 4 weeks placebo run out.

CD19+ B-cell [2] = test: Phase 2b trial: plasma CD19+ B-cell count in the placebo run-out cohort; assay type: in vivo, human; conditions: Cohort 1
Protocol: OUTCOMES: The outcomes evaluated in this example include measuring the incidence of relapse during 4-week placebo run-in and run-out, the number of new Gd-enhancing T1 lesions detected with magnetic resonance imaging (MRI) at Weeks 4, 8 and 16, the number of new or enlarging T2 lesions measured at Weeks 4, 8 and 16, and the plasma CD19+B-cell count measured in the placebo run-out cohort at baseline, 1 hour after the first dose, then at Week 12 and Week 16 (FIG. 3).

[3] = test system: patients with relapsing multiple sclerosis; test: Phase 2b dose-finding study: number of new or enlarging T2 lesions by brain MRI; conditions: for Number of new/enlarging T2 lesions, mean (SD): Cohort 1 (all doses)
Protocol: New T1 Gd-enhancing hyperintense and new and enlarging T2 lesions are evaluated at each visit as per the SoA (Table 1), comparing lesion count to that from the previous MRI scan. Unless specified otherwise, the baseline brain MRI is used as the reference to assess all MRI-derived endpoints. The baseline MRI is the last MRI performed before the randomization visit. Standardized endpoint evaluation is assured by central review of brain MRI scans. Blinded central review is performed for all MRI-derived endpoints. Magnetic resonance imaging reviewers are blinded to treatment assignments and to other participant data.
For the number of new or enlarging T2 lesions, descriptive summary statistics over time (4, 8, 12, and 16 weeks) is provided for each of the 4 BTK inhibitor doses. Further, a similar MCP-Mod approach is explored if it is deemed reasonable to extrapolate the Week 4 data from Cohort 2 to the Week 12 placebo data.
For each secondary endpoint, a similar negative binomial model and the MCP-Mod procedure were used. As it is reasonable to assume a constant rate of lesion formation over 12 weeks under placebo treatment, the same approach as that utilized for the primary endpoint was used, i.e., using the Week 4 data in Cohort 2 as the Week 12 placebo data while accounting for within-participant correlation. Descriptive summary statistics over time were provided for each of the 4 BTK inhibitor dose groups.
Magnetic resonance imaging (MRI) scans were obtained at screening and every 4 weeks for 16 weeks.

patients with RMS = test: Ongoing tolebrutinib Phase 3 trials: drug-induced liver injury; assay type: in vivo, human; conditions: ongoing Phase 3 trials
Excerpt: Drug-induced liver injury has been identified in the ongoing tolebrutinib Phase 3 trials. The reported events occurred between months 2 to 3 after the start of tolebrutinib administration, and the elevation of liver enzymes appears reversible after tolebrutinib discontinuation. Thus, there is a need to mitigate the risk of hepatic injury and provide safe treatment for patients with RMS.

CD19+ B-cell [4] = test: Phase 1: absolute CD19+ B-cell counts
[5] = 5 mg daily, after 12 weeks of treatment
[6] = 15 mg daily, after 12 weeks of treatment
[7] = 30 mg daily, after 12 weeks of treatment
[8] = 60 mg daily, after 12 weeks of treatment

C=CC(=O)N1CCC[C@@H](n2c(=O)n(-c3ccc(Oc4ccccc4)cc3)c3c(N)nccc32)C1 [the BTK inhibitor, (R)-1-(1-acryloylpiperidin-3-yl)-4-amino-3-(4-phenoxyphenyl)-1H-imidazo[4,5-c]pyridin-2(3H)-one]
Substrate of CYP3A isoenzyme (CYP3A): substrate | Number of new T1 non-enhancing (hypointense) lesions, Mean (SD) ([1]; 5/60 mg, Week 0): 0.23 (0.43) | Number of new T1 non-enhancing (hypointense) lesions, Median ([1]; 5/60 mg, Week 0): 0.00 | Number of new T1 non-enhancing (hypointense) lesions, Mean (SD) ([1]; 5/60 mg, Week 12): 0.19 (0.60) | Number of new T1 non-enhancing (hypointense) lesions, Median ([1]; 5/60 mg, Week 12): 0.00 | Number of new T1 non-enhancing (hypointense) lesions, Mean (SD) ([1]; 15/60 mg, Week 0): 0.61 (1.45) | Number of new T1 non-enhancing (hypointense) lesions, Median ([1]; 15/60 mg, Week 0): 0.00 | Number of new T1 non-enhancing (hypointense) lesions, Mean (SD) ([1]; 15/60 mg, Week 12): 0.26 (0.73) | Number of new T1 non-enhancing (hypointense) lesions, Median ([1]; 15/60 mg, Week 12): 0.00 | Number of new T1 non-enhancing (hypointense) lesions, Mean (SD) ([1]; 30/60 mg, Week 0): 0.31 (1.09) | Number of new T1 non-enhancing (hypointense) lesions, Median ([1]; 30/60 mg, Week 0): 0.00 | Number of new T1 non-enhancing (hypointense) lesions, Mean (SD) ([1]; 30/60 mg, Week 12): 0.09 (0.39) | Number of new T1 non-enhancing (hypointense) lesions, Median ([1]; 30/60 mg, Week 12): 0.00 | Number of new T1 non-enhancing (hypointense) lesions, Mean (SD) ([1]; 60/60 mg, Week 0): 0.06 (0.36) | Number of new T1 non-enhancing (hypointense) lesions, Median ([1]; 60/60 mg, Week 0): 0.00 | Number of new T1 non-enhancing (hypointense) lesions, Mean (SD) ([1]; 60/60 mg, Week 12): 0.03 (0.18) | Number of new T1 non-enhancing (hypointense) lesions, Median ([1]; 60/60 mg, Week 12): 0.00 | Number of new T1 non-enhancing (hypointense) lesions, Mean (SD) ([1]; All (N = 125), Week 0): 0.30 (0.96) | Number of new T1 non-enhancing (hypointense) lesions, Median ([1]; All (N = 125), Week 0): 0.00 | Number of new T1 non-enhancing (hypointense) lesions, Mean (SD) ([1]; All (N = 125), Week 12): 0.14 (0.52) | Number of new T1 non-enhancing (hypointense) lesions, Median ([1]; All (N = 125), Week 12): 0.00 | Number of B cells in the peripheral circulation after placebo run-out (CD19+ B-cell [2]; after the 4-week placebo run-out period): returned towards baseline level | Number of B cells in the peripheral circulation after the first dose (CD19+ B-cell [2]; within 1 hour after the first dose): increased | New or enlarging T2 lesion count, Mean [3, 5]: 1.90 | New or enlarging T2 lesion count, Median [3, 5]: 0.00 | Count of new and enlarging T2 lesions, observed mean (SD) ([3]; 5 mg once daily, end of 12 weeks of treatment): 1.90 (3.97) | New or enlarging T2 lesion count, Mean [3, 6]: 1.32 | New or enlarging T2 lesion count, Median [3, 6]: 1.00 | Count of new and enlarging T2 lesions, observed mean (SD) ([3]; 15 mg once daily, end of 12 weeks of treatment): 1.32 (1.83) | New or enlarging T2 lesion count, Mean [3, 7]: 1.30 | New or enlarging T2 lesion count, Median [3, 7]: 0.00 | Count of new and enlarging T2 lesions, observed mean (SD) ([3]; 30 mg once daily, end of 12 weeks of treatment): 1.30 (4.90) | New or enlarging T2 lesion count, Mean [3, 8]: 0.23 | New or enlarging T2 lesion count, Median [3, 8]: 0.00 | Patients with >=3 new or enlarging T2 lesions [3, 8]: 0 n | Count of new and enlarging T2 lesions, observed mean (SD) ([3]; 60 mg once daily, end of 12 weeks of treatment): 0.23 (0.62) | Adjusted relative reduction in count of new and enlarging T2 lesions relative to placebo ([3]; 60 mg, 12 weeks, 95% CI [68.39%, 96.41%], nominal p=0.0001): 89.34% | Participants with no new and enlarging T2 lesions ([3]; 60 mg, end of 12 weeks of treatment, 27 of 31 with evaluable MRI): 87.1% | Number of new/enlarging T2 lesions, mean (SD) ([3]; Week 12): 0.58 (1.27) | Number of new/enlarging T2 lesions, mean (SD) ([3]; after 4 weeks of placebo run-out): 0.95 (2.72) | Course of the elevation of liver enzymes after discontinuation (patients with RMS): reversible | Drug-induced liver injury (patients with RMS): identified | Dose at which the dose-response for the increase in circulating B-cells is maximal (CD19+ B-cell [4]): approximately 30 mg once daily | Dose-dependent increase of absolute CD19+ B-cell counts relative to baseline (CD19+ B-cell [4]; observed maximally at Day 4): up to 80%
